Laboratory results reported in patent US20210198277A1, “AMINE-SUBSTITUTED ARYL OR HETEROARYL COMPOUNDS” (Epizyme, Inc., priority 2016, published 2021).

Molecular target: T1, EHMT2 (Homo sapiens, UniProt Q96KQ7)
T1 construct: host or cells: MDA-MB-231
T1 sequence (Q96KQ7 1-1210): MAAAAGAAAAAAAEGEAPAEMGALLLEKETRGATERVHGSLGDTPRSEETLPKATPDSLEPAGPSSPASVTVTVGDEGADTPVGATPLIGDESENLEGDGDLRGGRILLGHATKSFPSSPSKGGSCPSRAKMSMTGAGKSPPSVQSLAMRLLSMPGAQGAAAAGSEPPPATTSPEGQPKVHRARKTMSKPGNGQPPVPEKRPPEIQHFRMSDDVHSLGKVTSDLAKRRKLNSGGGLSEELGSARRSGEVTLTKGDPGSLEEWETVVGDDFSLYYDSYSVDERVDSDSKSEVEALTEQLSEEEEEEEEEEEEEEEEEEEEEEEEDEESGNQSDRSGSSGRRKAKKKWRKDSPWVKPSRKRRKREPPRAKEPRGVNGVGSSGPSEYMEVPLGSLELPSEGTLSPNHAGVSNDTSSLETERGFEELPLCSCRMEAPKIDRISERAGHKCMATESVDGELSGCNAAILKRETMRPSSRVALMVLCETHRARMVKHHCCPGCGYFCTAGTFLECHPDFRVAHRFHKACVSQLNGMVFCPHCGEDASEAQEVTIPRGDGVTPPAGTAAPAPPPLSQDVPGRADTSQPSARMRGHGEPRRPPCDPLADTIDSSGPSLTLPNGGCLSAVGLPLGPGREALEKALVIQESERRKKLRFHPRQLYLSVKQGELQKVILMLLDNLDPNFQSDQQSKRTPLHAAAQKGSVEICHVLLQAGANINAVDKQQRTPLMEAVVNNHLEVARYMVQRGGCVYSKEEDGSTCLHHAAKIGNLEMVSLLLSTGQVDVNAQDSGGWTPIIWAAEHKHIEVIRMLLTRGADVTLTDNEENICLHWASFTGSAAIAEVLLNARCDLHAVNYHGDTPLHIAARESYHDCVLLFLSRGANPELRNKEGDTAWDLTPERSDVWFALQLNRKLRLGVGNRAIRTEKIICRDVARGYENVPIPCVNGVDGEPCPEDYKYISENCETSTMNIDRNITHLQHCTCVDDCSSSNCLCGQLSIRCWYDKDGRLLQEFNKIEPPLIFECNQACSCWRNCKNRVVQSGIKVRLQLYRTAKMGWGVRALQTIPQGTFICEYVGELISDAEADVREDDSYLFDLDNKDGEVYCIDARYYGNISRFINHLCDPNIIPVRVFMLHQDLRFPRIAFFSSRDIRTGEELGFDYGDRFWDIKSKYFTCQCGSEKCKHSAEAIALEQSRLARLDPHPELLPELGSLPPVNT
Test: MDA-MB-231 H3K9me2 in-cell Western assay (EHMT2 ICW)
Assay type: cell-based
Settings: Table VI; read-out: EHMT2 ICW IC50
Outline: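 MDA-MB-231 cells (3,000/well) seeded onto compound, kept 30 min at room temperature, then 48 h at 37 °C, 5% CO2. IC50 from triplicate wells, four-parameter fit.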

Row | SMILES | IC50 [nM]
1 | CNc1cc(C)nc(Nc2ccc(OC)c(OCC(O)CN3CCCC3)c2)n1 (stereo in doubt) [Compound 906, (2S)-1-(2-methoxy-5-[[4-methyl-6-(methylamino)pyrimidin-2-yl]amino]phenoxy)-3-(pyrrolidin-1-yl)propan-2-ol] | 100 to 1000
2 | COc1cnc(Nc2cccc3[nH]nnc23)cc1OCCCN1CCCC1 [Compound 619] | > 10000
3 | CCN1CC(COc2cc(Nc3cccn4cnnc34)ncc2OC)C1 [Compound 620] | > 10000
4 | CNc1cc(C)nc(Nc2c[nH]c(=O)c(OCCCN3CCCC3)c2)n1 [Compound 621] | > 10000
5 | CNc1cc(C)nc(Nc2cc(OCCCN3CCCC3)c3nncn3c2)n1 [Compound 622] | > 10000
6 | CNc1cc(C)nc(Nc2cc(OCCCN3CCCC3)c3ncnn3c2)n1 [Compound 623] | 1000 to 10000
7 | CNc1cc(C)nc(Nc2cc(OCCCN3CCCC3)c3[nH]nnc3c2)n1 [Compound 624] | 1000 to 10000
8 | COc1cc2c(C3CCN(C)CC3)cc(N3CCCC3)nc2cc1OCCCN1CCCC1 [Compound 625] | 100 to 1000
9 | COc1cc2c(C3CCN([C@H]4CCOC4)CC3)cc(C)nc2cc1OCCCN1CCCC1 [Compound 864] | 100 to 1000
10 | CCNc1cc(C2CCOCC2)c2cc(OC)c(OCCCN3CCCC3)cc2n1 [Compound 865] | 100 to 1000
11 | CNc1cc(C2CCN([C@@H]3CCOC3)CC2)c2cc(OC)c(OCCCN3CCCC3)cc2n1 [Compound 866] | < 100
12 | CNc1cc(C2CCN([C@H]3CCOC3)CC2)c2cc(OC)c(OCCCN3CCCC3)cc2n1 [Compound 867] | < 100
13 | COc1ccc(Nc2nc(C)cc(C3CCOCC3)n2)cc1OCCCN1CCCC1 [Compound 870] | > 10000
14 | CNc1cc(C)nc(Nc2ccc(OC)c(C(=O)NCc3ccccc3)c2)n1 [Compound 871] | > 10000
15 | CNc1cc(C)nc(Nc2ccc(OC)c(C(=O)NC3CCN(C)CC3)c2)n1 [Compound 873] | > 10000
16 | CNc1cc(C)nc(Nc2ccc(CNC(=O)c3ccccc3)c(OC)c2)n1 [Compound 876] | > 10000
17 | CNc1cc(C)nc(Nc2ccc(C(=O)NCc3ccccc3)c(OC)c2)n1 [Compound 877] | > 10000
18 | CNc1cc(C)nc(Nc2cnc(OC)c(OC[C@@H](O)CN3CCCC3)c2)n1 [Compound 881] | 100 to 1000
19 | CNc1cc(C)nc(Nc2cnc(OC)c(OC[C@H](O)CN3CCCC3)c2)n1 [Compound 882] | 1000 to 10000
20 | COc1ncc(Nc2nc(C)cc(NCC3COC3)n2)cc1OC[C@@H](O)CN1CCCC1 [Compound 883] | > 10000
21 | COc1ncc(Nc2nc(C)cc(NCC3COC3)n2)cc1OC[C@H](O)CN1CCCC1 [Compound 884] | > 10000
22 | CNc1cc(C)nc(Nc2cc(OC[C@@H](O)CN3CCCC3)c(OC)cn2)n1 [Compound 885] | > 10000
23 | CNc1cc(C)nc(Nc2cc(OC[C@H](O)CN3CCCC3)c(OC)cn2)n1 [Compound 886] | > 10000
24 | CNC(=O)CCNc1cc(C)nc(Nc2cnc(OC)c(OCCCN3CCCC3)c2)n1 [Compound 887] | 1000 to 10000

Row | SMILES | IC50 [nM]
25 | CNC(=O)N1CC(CNc2cc(C)nc(Nc3cnc(OC)c(OCCCN4CCCC4)c3)n2)C1 [Compound 888] | > 10000
26 | CNc1cc(C)nc(Nc2ccc(OC)c(OCCCc3nc(Cl)c[nH]3)c2)n1 [Compound 890] | > 10000
27 | CNc1cc(C)nc(Nc2ccc(OC)c(OCCCc3nc(Cl)cn3C)c2)n1 [Compound 891] | > 10000
28 | CNS(=O)(=O)CCNc1cc(C)nc(Nc2ccc(OC)c(OCCCN3CCCC3)c2)n1 [Compound 892] | 1000 to 10000
29 | COc1ccc(Nc2nc(C)cc(NCCS(=O)(=O)N(C)C)n2)cc1OCCCN1CCCC1 [Compound 893] | 100 to 1000
30 | COc1cnc(Nc2cc(NCC3COC3)cnn2)cc1OCCCN1CCCC1 [Compound 894] | > 10000
31 | COc1cc2cc(C#N)c(C)nc2cc1OCCCN1CCCC1 [Compound 895] | > 10000
32 | COc1cc2cc(F)c(C)nc2cc1OCCCN1CCCC1 [Compound 896] | > 10000
33 | CNc1nc2cc(OCCCN3CCCC3)c(OC)cc2cc1F [Compound 897] | > 10000
34 | CNC(=O)C1CCN(c2cc3nc(NC)cc(C)c3cc2OC)C1 (stereo not shown) [Compound 900] | 100 to 1000
35 | CNc1cc(C2CCOCC2)c2cc(OC)c(OCCCN3CC(O)C3)cc2n1 [Compound 902] | 100 to 1000
36 | CNc1nc2cc(OCCCN3CCCC3)c(OC)cc2cc1Cl [Compound 903] | 1000 to 10000
37 | CNc1cc(C)nc(Nc2ccc(OC)c(C#CCN3CCOCC3)c2)n1 [Compound 904] | > 10000
38 | CNc1cc(C)nc(Nc2ccc(OC)c(OC[C@@H](O)CN3CCCC3)c2)n1 [Compound 905] | 100 to 1000
39 | CNc1ccnc(Nc2ccc(OC)c(OC[C@@H](O)CN3CCC3)c2)n1 [Compound 907] | 1000 to 10000
40 | CNc1ccnc(Nc2ccc(OC)c(OC[C@H](O)CN3CCC3)c2)n1 [Compound 908] | 100 to 1000
41 | CNc1ccnc(Nc2cnc(OC)c(OC[C@@H]3CCN(C)C3)c2)n1 [Compound 912] | 100 to 1000
42 | CNc1ccnc(Nc2cnc(OC)c(OCCCN3CCC3)c2)n1 [Compound 914] | 100 to 1000
43 | CNCCCOc1cc(Nc2nccc(NC)n2)ccc1OC [Compound 916] | 1000 to 10000
44 | CNCCCOc1cc(Nc2nccc(NC)n2)cnc1OC [Compound 917] | 1000 to 10000
45 | CNC[C@@H](O)COc1cc(Nc2nccc(NC)n2)cnc1OC [Compound 918] | 1000 to 10000
46 | CNc1ccnc(Nc2ccc(OC)c(OC[C@@H](CN3CCCC3)OC)c2)n1 [Compound 919] | > 10000
47 | CNc1ccnc(Nc2ccc(OC)c(OC[C@H](CN3CCCC3)OC)c2)n1 [Compound 920] | 100 to 1000
48 | CNC[C@H](COc1cc(Nc2nccc(NC)n2)ccc1OC)OC [Compound 921] | > 10000

Row | SMILES | IC50 [nM]
49 | CNC[C@@H](COc1cc(Nc2nccc(NC)n2)ccc1OC)OC [Compound 922] | > 10000
50 | CCN1CC[C@@H](COc2cc(Nc3nccc(NC)n3)ccc2OC)C1 [Compound 927] | 100 to 1000
51 | CNc1ccnc(Nc2ccc(OC)c(OC[C@@H]3CCN(C4CC4)C3)c2)n1 [Compound 928] | < 100
52 | CNc1ccnc(Nc2ccc(OC)c(OC[C@H]3CN(C)CCO3)c2)n1 [Compound 931] | > 10000
53 | CCN1CCO[C@@H](COc2cc(Nc3nccc(NC)n3)ccc2OC)C1 [Compound 932] | > 10000
54 | CNc1ccnc(Nc2ccc(OC)c(OC[C@H]3CNCCO3)c2)n1 [Compound 933] | > 10000
55 | CNc1ccnc(Nc2ccc(OC)c(OC[C@@H]3CN(C)CCO3)c2)n1 [Compound 936] | > 10000
56 | CCN1CCO[C@H](COc2cc(Nc3nccc(NC)n3)ccc2OC)C1 [Compound 937] | > 10000
57 | CNc1ccnc(Nc2ccc(OC)c(OC[C@@H]3CNCCO3)c2)n1 [Compound 938] | > 10000
58 | CNc1ccnc(Nc2ccc(OC)c(OC[C@@H](C)CN3CCC3)c2)n1 [Compound 943] | 1000 to 10000
59 | CNc1ccnc(Nc2ccc(OC)c(OC[C@H](C)CN3CCC3)c2)n1 [Compound 945] | 100 to 1000
60 | CCN1CC[C@@H](COc2cc(Nc3nc(C)cc4[nH]ncc34)ncc2OC)C1 [Compound 947] | 1000 to 10000
61 | CNc1cc(C)nc(Nc2cnc(OC)c(OCCCN3CCC3)c2)n1 [Compound 949] | 100 to 1000
62 | COc1cc2c(C3CCN(C)CC3)nc(N3CCCC3)nc2cc1OCCCN1CC(O)C1 [Compound 950] | 1000 to 10000
63 | CCN1CC(COc2cc3nc(NC)nc(C4CCN(C)CC4)c3cc2OC)C1 [Compound 951] | 1000 to 10000
64 | CNc1nc(C2=CC(C)(C)NC(C)(C)C2)c2cc(OC)c(OCCCN3CCCC3)cc2n1 [Compound 961] | > 10000
65 | CNc1cc(C)nc(Nc2ccc(OC)c(OC[C@H](O)CNC3CCC3)c2)n1 [Compound 962] | 1000 to 10000
66 | CNc1cc(C)nc(Nc2cnc(OC)c(OC[C@H](O)CN3CCC3)c2)n1 [Compound 963] | 100 to 1000
67 | CNCCNCc1cc(Nc2nc(C)cc(NC)n2)ccc1OC [Compound 964] | 1000 to 10000
68 | CNc1cc(C)nc(Nc2ccc(OC)c(CNCCN3CCC3)c2)n1 [Compound 965] | < 100
69 | CNc1ccnc(Nc2cnc(OC)c(OC[C@@H]3CCN(C4CCC4)C3)n2)n1 [Compound 974] | 100 to 1000
70 | CNc1cc(C)nc(Nc2ccc(OC)c(OC[C@H](O)CN3CC(C)C3)c2)n1 [Compound 985] | 100 to 1000
